The results in this text go back to patent US20260167622A1, “PAN-KRAS DEGRADING AGENT, AND PREPARATION METHOD THEREFOR AND USE THEREOF” (LEADINGTAC PHARMACEUTICAL (SHAOXING) CO., LTD., priority 2022, published 2026).

A word on the IC50: it is the concentration that inhibits the measured activity by half.

One assay has as its target T1, Human KRAS G12D (Homo sapiens, UniProt P01116, G12D).
T1 construct: purchased PerkinElmer
Nature of the assay: KRAS-G12D/GTP binding assay (HTRF kit). The note with it: 25° C., 1 h. As to the method:
Test Example 1: KRAS G12D Binding Assay
In this method, the inhibitory effects of the compounds on the binding of KLRAS G12D to GTP were assayed by a homogeneous time-resolved fluorescence (HTRF) technique using a KLRAS-G12D/GTP binding assay kit (PerkinElmer).
The experimental procedures were as follows (refer to the kit instructions for detailed test methods): the compounds of the present disclosure were each firstly dissolved in DMSO at a concentration of 20 mM, and then diluted in an equal gradient with a buffer in the kit, so that the final concentrations of the test compounds in the reaction system were in a range of 0.02-5000 nM, and the final concentration of DMSO was 0.5%. […] After the incubation was completed, the fluorescence intensity of each well was measured at the excitation wavelength of 337 nm and the emission wavelengths of 620 nm and 665 nm with an EnVision microplate reader (PerkinElmer) in the HTRF mode, and Ratio values were calculated using the formula: Ratio=(665 nm/620 nm)×[…]. The inhibition rates of the compounds at each concentration were calculated by comparing the fluorescence intensity ratio with that of the control group. […]
In general terms: Time-resolved FRET reads energy transfer from a long-lived donor to a nearby acceptor.

The target in a further assay is T2, Human KRAS WT (Homo sapiens, UniProt P01116).
T2 construct: purchased PerkinElmer
T2 sequence (P01116 1-188 isoform P01116-2): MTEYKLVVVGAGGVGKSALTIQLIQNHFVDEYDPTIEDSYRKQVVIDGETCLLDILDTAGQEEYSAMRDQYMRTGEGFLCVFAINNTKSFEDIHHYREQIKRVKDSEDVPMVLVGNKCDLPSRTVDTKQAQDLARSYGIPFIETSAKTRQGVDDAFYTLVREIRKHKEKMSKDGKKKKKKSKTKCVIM
The assay can be described thus: KRAS WT:GTP binding assay (HTRF kit). As to conditions: 25° C., 1 h. As to the method:
Test Example 3: KRAS WT Binding Assay
In this method, the inhibitory effects of the compounds on the binding of KRAS WT to GTP were assayed by a homogeneous time-resolved fluorescence (HTRF) technique using a KRAS WT:GTP binding assay kit (PerkinElmer).
The experimental procedures were as follows (refer to the kit instructions for detailed test methods): the compounds of the present disclosure were each firstly dissolved in DMSO at a stock concentration of 20 mM. The stock solutions of the compounds were diluted in an equal gradient with DMSO, and then were subjected to second dilution with a buffer in the kit, so that the final concentrations of the test compounds in the reaction system were in a range of 0.02-5000 nM, and the final concentration of DMSO was 0.5%. […] After the incubation was completed, the fluorescence intensity of each well was measured at the excitation wavelength of 337 nm and the emission wavelengths of 620 nm and 665 nm with an EnVision microplate reader (PerkinElmer) in the HTRF mode, and Ratio values were calculated using the formula: Ratio=(665 nm/620 nm)×[…]. The inhibition rates of the compounds at each concentration were calculated by comparing the fluorescence intensity ratio with that of the control group. […]

T1 sequence (P01116 1-188 isoform P01116-2 G12D): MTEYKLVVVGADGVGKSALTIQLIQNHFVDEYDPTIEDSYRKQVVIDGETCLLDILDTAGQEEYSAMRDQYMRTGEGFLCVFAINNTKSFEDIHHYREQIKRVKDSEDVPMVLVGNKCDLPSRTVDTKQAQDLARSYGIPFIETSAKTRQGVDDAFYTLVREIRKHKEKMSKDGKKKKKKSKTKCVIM

For `C#Cc1c(F)ccc2cc(O)cc(-c3ncc4c(N5CCC[C@@](C)(O)C5)nc(OCC5(CN6CCN(CC7CCC8(CC7)CCN(C(=O)c7ccc(Cl)c(N9CCC(=O)NC9=O)c7)CC8)CC6)CC5)nc4c3F)c12` [Example 1, (R)-1-(2-chloro-5-(9-((4-((1-(((7-(8-ethynyl-7-fluoro-3-hydroxynaphthalen-1-yl)-8-fluoro-4-(3-hydroxy-3-methylpiperidin-1-yl)pyrido[4,3-d]pyrimidin-2-yl)oxy)methyl)cyclopropyl)methyl)piperazin-1-yl)methyl)-3-azaspiro[5.5]undecane-3-carbonyl)phenyl)dihydropyrimidine-2,4(1H,3H)-dione], the IC50 is at most 500 nM on Human KRAS G12D and 1000 to 10000 nM on Human KRAS WT.
As to `CCc1cccc2cc(O)cc(-c3ncc4c(N5CCC[C@@](C)(O)C5)nc(OCC5(CN6CCN(CC7CCC8(CC7)CCN(C(=O)c7ccc(Cl)c(N9CCC(=O)NC9=O)c7)CC8)CC6)CC5)nc4c3F)c12` [Example 3, (R)-1-(2-chloro-5-(9-((4-((1-(((7-(8-ethyl-3-hydroxynaphthalen-1-yl)-8-fluoro-4-(3-hydroxy-3-methylpiperidin-1-yl)pyrido[4,3-d]pyrimidin-2-yl)oxy)methyl)cyclopropyl)methyl)piperazin-1-yl)methyl)-3-azaspiro[5.5]undecane-3-carbonyl)phenyl)dihydropyrimidine-2,4(1H,3H)-dione], the IC50 on Human KRAS G12D was at most 500 nM; on Human KRAS WT, 500 to 1000 nM.
